Test results taken from patent EP1025077B1, “NOVEL ARYLOXY-ALKYL-DIALKYLAMINES” (Wyeth, priority 1997, dated 1999).
Structures can show the parent of a compound that is named as a salt. Where two headings read alike, the source gives them in different places.

Columns and labels:
TACE = target: T1, TACE (Homo sapiens, UniProt P78536); assay: Procedure for Measuring TACE Inhibition (fluorescent peptidyl substrate); format: biochemical; settings: read-out: TACE % inhibition at 1 micromolar; 1 micromolar compound
T1 construct: purchased Immunex
T1 sequence (P78536 215-824): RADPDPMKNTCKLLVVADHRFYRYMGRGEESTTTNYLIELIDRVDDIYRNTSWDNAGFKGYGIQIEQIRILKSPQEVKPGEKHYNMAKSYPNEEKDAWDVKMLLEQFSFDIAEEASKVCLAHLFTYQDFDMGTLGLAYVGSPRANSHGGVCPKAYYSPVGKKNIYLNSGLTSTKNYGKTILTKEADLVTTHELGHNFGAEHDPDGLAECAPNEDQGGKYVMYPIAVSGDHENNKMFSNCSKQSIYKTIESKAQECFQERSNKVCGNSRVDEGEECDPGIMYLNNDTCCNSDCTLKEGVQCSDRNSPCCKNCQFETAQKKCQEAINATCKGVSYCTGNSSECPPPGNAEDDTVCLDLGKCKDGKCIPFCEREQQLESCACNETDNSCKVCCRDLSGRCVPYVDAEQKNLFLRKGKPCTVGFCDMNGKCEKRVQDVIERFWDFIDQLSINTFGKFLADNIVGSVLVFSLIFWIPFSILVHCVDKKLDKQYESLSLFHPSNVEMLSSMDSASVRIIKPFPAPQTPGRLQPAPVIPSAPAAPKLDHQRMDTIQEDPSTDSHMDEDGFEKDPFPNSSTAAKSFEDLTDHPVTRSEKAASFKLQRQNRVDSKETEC
Method: Using 96-well black microtiter plates, each well receives a solution composed of 10 µL TACE (Immunex, final concentration 1µg/mL), 70µL Tris buffer, pH 7.4 containing 10% glycerol (final concentration 10 mM), and 10 µL of test compound solution in DMSO (final concentration 1µM, DMSO concentration <1%) and incubated for 10 minutes at room temperature. […] The reaction is read (excitation 340 nm, emission 420 nm) for 10 min. and the increase in fluorescence over time is plotted as a linear line. The slope of the line is calculated and represents the reaction rate. The linearity of the reaction rate is confirmed (r^2 >0.85). The mean (x±sem) of the control rate is calculated and compared for statistical significance (p<0.05) with drug-treated rates using Dunnett's multiple comparison test. […]
The reaction is read (excitation 340 nm, emission 420 nm) for 10 min. and the increase in fluorescence over time is plotted as a linear line. The slope of the line is calculated and represents the reaction rate.
The linearity of the reaction rate is confirmed (r^2 >0.85). The mean (x±sem) of the control rate is calculated and compared for statistical significance (p<0.05) with drug-treated rates using Dunnett's multiple comparison test.

Ishikawa cells = assay: Ishikawa Cell Alkaline Phosphatase Assay; format: cell-based, human; settings: for EC50: Homo sapiens, Ishikawa, cells treated for 48 h; for % Activation: compound alone, percent of response related to 1 nM 17_estradiol
Method: Ishikawa cells were maintained in DMEM/F12 (50%:50%) containing phenol red + 10% fetal bovine serum and the medium was supplemented with 2 mM Glutamax, 1% Pen/Strap and 1 mM sodium pyruvate. Five days prior to the beginning of each experiment (treatment of cells) the medium was changed to phenol red-free DMEM/F12 + 10% dextran coated charcoal stripped serum. […] Sample population for at each dose was n=8.
50_L of lysis buffer (0.1 M Tris-HCl, pH 9.8, 0.2% Triton X-100) is added to each well. […] Plates are thawed at 37°C followed by the addition of 150_L of 0.1 M Tris-HCl, pH 9.8, containing 4 mM para-nitrophenylphosphate (pNPP) to each well (final concentration, 3 mM pNPP). Absorbance and slope calculations were made using the KineticCalc Application program (Bio-Tek Instruments, Inc., Winooski, VT). Results are expressed as the mean +/- S.D. of the rate of enzyme reaction (slope) averaged over the linear portion of the kinetic reaction curve (optical density readings every 5 minutes for 30 minutes absorbance reading).

[1] = test system: Immature Sprague-Dawley rats (female, 18 days old); assay: Rat Uterotrophic/Antiuterotrophic Bioassay (uterine wet weight); format: in vivo; settings: for uterine wet weight, 10uG: 10 uG compound daily ip; for uterine wet weight, 100uG: 100 uG compound daily ip; for uterine wet weight, 1 uG 17_-estradiol: 1 uG daily ip

SMILES: COc1ccc(S(=O)(=O)C(C)(Cc2ccc(OCCN3CCCCC3)cc2)C(=O)NO)cc1 (centres unmarked) [Example 26]
- inhibition at 1 µM (TACE): 41%

SMILES: C[C@]12CC[C@@H]3c4ccc(O)cc4CC[C@H]3[C@@H]1CCC2=O [estrone]
- EC50 (Ishikawa cells; 48 h, read-out: ED50 values (95% C.I.), estrogenic activity by the alkaline phosphatase method, reference standards): 0.36 nM

SMILES: Cc1c(-c2ccc(O)cc2)n(Cc2ccc(OCCN3CCCCC3)cc2)c2ccc(O)cc12 [Example 15, 2-(4-Hydroxy-phenyl)-3-methyl-1-[4-(2-piperidin-1-yl-ethoxy)-benzyl]-1H-indol-5-ol]
- uterine wet weight, 10uG ([1]; control = 30.7 mg): 39.9 mg
- uterine wet weight, 100uG + 1uG 17 -estradiol ([1]; 100 uG compound + 1 uG 17_ estradiol daily ip (antiestrogenicity), control = 30.7 mg): 24.3 mg
- uterine wet weight, 100uG ([1]; control = 30.7 mg): 27.4 mg
- % Activation (Ishikawa cells; 48 h): 1% activity (1% with 1 nM 17_-estradiol)

SMILES: O=C(c1ccc(OCCN2CCCCC2)cc1)c1c(-c2ccc(O)cc2)sc2cc(O)ccc12 [Raloxifene, [2-(4-hydroxyphenyl)-6-hydroxybenzo[b]thien-3-yl][4-(1-piperidinyl0ethoxy]phenyl-methanone hydrochloride]
- uterine wet weight, 10uG ([1]; control = 42.7 mg): 47.5 mg
- uterine wet weight, 100uG ([1]; control = 42.7 mg): 43.2 mg
- % Activation (Ishikawa cells; 48 h): 5% activity (5% with 1 nM 17_-estradiol)

SMILES: CC/C(=C(\c1ccccc1)c1ccc(OCCN(C)C)cc1)c1ccccc1 [Tamoxifen]
- uterine wet weight, 10uG ([1]; control = 42.7 mg): 69.6 mg
- uterine wet weight, 100uG ([1]; control = 42.7 mg): 71.4 mg

SMILES: C[C@]12CC[C@@H]3c4ccc(O)cc4CC[C@H]3[C@@H]1C[C@@H](O)[C@@H]2O [estriol]
- EC50 (Ishikawa cells; read-out: ED50 values (95% C.I.), estrogenic activity by the alkaline phosphatase method, reference standards): 0.13 nM

SMILES: C[C@]12CC[C@@H]3c4ccc(O)cc4CC[C@H]3[C@@H]1CC[C@@H]2O [17_-estradiol]
- uterine wet weight, 1 uG 17_-estradiol ([1]; control = 30.7 mg): 1 uG 17_-estradiol = 63.2 mg
- uterine wet weight, 1 uG 17_-estradiol ([1]; control = 42.7 mg): 1 uG 17_-estradiol = 98.2 mg
